Patent US11400081B2, “Compounds” (The University of Sheffield, priority 2017, dated 2022)

Target: T1, AM2 receptor (CALCRL+RAMP3) (Homo sapiens, UniProt O60896+Q16602)
T1 construct: host or cells: 1321N1
Assay: AM2 receptor inhibition, LANCE TR-FRET cAMP agonist-antagonist competition assay
Assay type: cell-based
Details: inhibition of AM induced cAMP activation; 1321N1 cells transfected with CALCRL+RAMP3; read-out: AM2 pIC50 (converted)

T1 sequence (Q16602 23-461): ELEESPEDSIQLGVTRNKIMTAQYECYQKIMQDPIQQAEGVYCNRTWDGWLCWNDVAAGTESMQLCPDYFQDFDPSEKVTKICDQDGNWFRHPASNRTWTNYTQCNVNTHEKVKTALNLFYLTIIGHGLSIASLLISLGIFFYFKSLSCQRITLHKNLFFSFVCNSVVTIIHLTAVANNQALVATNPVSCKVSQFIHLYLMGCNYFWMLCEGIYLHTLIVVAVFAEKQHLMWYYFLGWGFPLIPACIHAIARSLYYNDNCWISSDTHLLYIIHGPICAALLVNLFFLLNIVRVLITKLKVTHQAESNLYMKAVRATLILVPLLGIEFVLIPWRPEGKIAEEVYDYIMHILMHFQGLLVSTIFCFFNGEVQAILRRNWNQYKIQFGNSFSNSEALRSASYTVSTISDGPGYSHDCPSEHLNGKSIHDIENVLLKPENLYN
T1 sequence (O60896 24-148): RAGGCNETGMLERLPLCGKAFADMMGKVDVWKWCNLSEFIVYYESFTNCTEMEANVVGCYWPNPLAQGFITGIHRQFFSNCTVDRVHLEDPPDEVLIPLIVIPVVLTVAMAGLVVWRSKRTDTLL

Compound | IC50 [nM]
CC(c1ccccc1CN(CC(=O)Nc1ccc2c(c1)CC1(C2)C(=O)Nc2ncccc21)C(=O)C(C)(C)C)N1CCC1 (stereo not shown) [Example 25, N-(2-(1-(Azetidin-1-yl)ethyl)benzyl)-N-(2-oxo-2-((2′-oxo-1,1′,2′,3-tetrahydrospiro[indene-2,3′-pyrrolo[2,3-b]pyridin]-5-yl)amino)ethyl)pivalamide] | 75.9
CNCc1ccccc1CN(CC(=O)Nc1ccc2c(c1)CC1(C2)C(=O)Nc2ncccc21)C(=O)COC (stereo not shown) [Example 57, 2-Methoxy-N-(2-((methylamino)methyl)benzyl)-N-(2-oxo-2-((2′-oxo-1,1′,2′,3-tetrahydrospiro[indene-2,3′-pyrrolo[2,3-b]pyridin]-5-yl)amino)ethyl)acetamide] | 269
CNCc1ccccc1CN(CC(=O)Nc1cc2c(cn1)CC1(C2)C(=O)Nc2ncccc21)C(=O)C(C)(C)C (stereo not shown) [Example 103, N-(2-((Methylamino)methyl)benzyl)-N-(2-oxo-2-((2′-oxo-1′,2′,5,7-tetrahydrospiro[cyclopenta[c]pyridine-6,3′-pyrrolo[2,3-b]pyridin]-3-yl)amino)ethyl)pivalamide] | 24
CNCc1ccccc1CN(CC(=O)Nc1ccc2c(c1)CC1(C2)C(=O)Nc2ncccc21)C(=O)N(C)C (stereo not shown) [Example 85, 2-(3,3-Dimethyl-1-(2-((methylamino)methyl)benzyl)ureido)-N-(2′-oxo-1,1′,2′,3-tetrahydrospiro[indene-2,3′-pyrrolo[2,3-b]pyridin]-5-yl)acetamide] | 234
CNCc1ccccc1CN(CC(=O)Nc1ccc2c(c1)CC1(C2)C(=O)Nc2ncccc21)C(=O)C1(C)COC1 (stereo not shown) [Example 58, 3-Methyl-N-(2-((methylamino)methyl)benzyl)-N-(2-oxo-2-((2′-oxo-1,1′,2′,3-tetrahydrospiro[indene-2,3′-pyrrolo[2,3-b]pyridin]-5-yl)amino)ethyl)oxetane-3-carboxamide] | 15.1
CNCc1ccccc1CN(C(=O)C(C)(C)C)[C@H](C)C(=O)Nc1ccc2c(c1)CC1(C2)C(=O)Nc2ncccc21 (stereo partly drawn) [Example 35, N-(2-((Methylamino)methyl)benzyl)-N-((2R)-1-oxo-1-((2′-oxo-1,1′,2′,3-tetrahydrospiro[indene-2,3′-pyrrolo[2,3-b]pyridin]-5-yl)amino)propan-2-yl)pivalamide] | 18.2
CC(C)(C)C(=O)N(CC(=O)Nc1ccc2c(c1)CC1(C2)C(=O)Nc2ncccc21)Cc1ccccc1CNCC1CC1 (stereo not shown) [Example 8, N-(2-(((Cyclopropylmethyl)amino)methyl)benzyl)-N-(2-oxo-2-((2′-oxo-1,1′,2′,3-tetrahydrospiro[indene-2,3′-pyrrolo[2,3-b]pyridine]-5-yl)amino)ethyl)pivalamide] | 166

Further lines, results first:

IC50 [nM] | Compound
43.7 | CNCc1ccccc1CN(CC(=O)Nc1ccc2c(c1)CC1(C2)C(=O)Nc2ncccc21)C(=O)N1CCCCC1 (stereo not shown) [Example 87, N-(2-((Methylamino)methyl)benzyl)-N-(2-oxo-2-((2′-oxo-1,1′,2′,3-tetrahydrospiro[indene-2,3′-pyrrolo[2,3-b]pyridin]-5-yl)amino)ethyl)piperidine-1-carboxamide]
33.1 | CNCc1ccccc1CN(CC(=O)Nc1ccc2c(c1)CC1(C2)C(=O)Nc2ncccc21)C(=O)C1CN(C(C)=O)C1 (stereo not shown) [Example 68, 1-(Acetyl)-N-[[2-(methylaminomethyl)phenyl]methyl]-N-[2-oxo-2-[(2-oxospiro[1H-pyrrolo[2,3-b]pyridine-3,2′-indane]-5′-yl)amino]ethyl]azetidine-3-carboxamide]
52.5 | CNCc1ccccc1CN(CC(=O)Nc1ccc2c(c1)CC1(C2)C(=O)Nc2ncccc21)C(=O)NC(C)C (stereo not shown) [Example 84, 2-(3-Isopropyl-1-(2-((methylamino)methyl)benzyl)ureido)-N-(2′-oxo-1,1′,2′,3-tetrahydrospiro[indene-2,3′-pyrrolo[2,3-b]pyridin]-5-yl)acetamide]
